Data reported in patent publication US8012956B2, “Tropane compounds” (Exelixis, Inc., priority 2007, dated 2011).

Target: HSP90 (Homo sapiens, UniProt P07900)
Assay: HSP90 inhibition (HSP90 IC50)
Assay type: biochemical

Row | SMILES | IC50 [nM]
1 | C[C@H](NC(=O)c1ccc(N2[C@@H]3CC[C@H]2C[C@@H](NC(=O)c2ccc(C(N)=O)c(NC4CCN(S(C)(=O)=O)CC4)c2)C3)nc1)c1ccc(N2CCN(C)CC2)cc1 [N4-(8-{5-[({(1S)-1-[4-(4-methylpiperazin-1-yl)phenyl]ethyl}amino)carbonyl]pyridin-n-2-yl}-8-azabicyclo[3.2.1]oct-3-endo-yl)-2-{[1-(methylsulfonyl)piperidin-4-yl]amino}benzene-1,4-dicarboxamide] | < 500
2 | CC(=O)c1ccc(N2[C@@H]3CC[C@H]2C[C@@H](NC(=O)c2ccc(C(N)=O)c(NCC(C)(C)C)c2)C3)nc1 [N4-[8-(5-acetylpyridin-2-y)-8-azabicyclo[3.2.1]oct-3-endo-yl]-2-[(2,2-dimethylpropyl)amino]benzene-1,4-dicarboxamide] | < 500
3 | CCC(C)Nc1cc(C(=O)N[C@H]2C[C@H]3CC[C@@H](C2)N3c2ccc(C(C)=O)cn2)ccc1C(N)=O (stereo partly drawn) [N4-[8-(5-acetylpyridin-2-yl)-8-azabicyclo[3.2.1]oct-3-endo-yl]-2-((1-methylpropyl)amino]benzene-1,4-dicarboxamide] | < 500
4 | CCCCNc1cc(C(=O)N[C@H]2C[C@H]3CC[C@@H](C2)N3c2ccc(C(C)=O)cn2)ccc1C(N)=O [N4-[8-(5-acetylpyridin-2-yl)-8-azabicyclo[3.2.1]oct-3-endo-yl]-2-(butylamino)benzene-1,4-dicarboxamide] | < 500
5 | CC(=O)c1ccc(N2[C@@H]3CC[C@H]2C[C@@H](NC(=O)c2ccc(C(N)=O)c(NC4CCCC4)c2)C3)nc1 [N4-[8-(5-acetylpyridin-2-yl)-8-azabicyclo[3.2.1]oct-3-endo-yl]-2-(cyclopentylamino)benzene-1,4-dicarboxamide] | < 500
6 | CC(=O)c1ccc(N2[C@@H]3CC[C@H]2C[C@@H](NC(=O)c2ccc(C(N)=O)c(NC4CC4)c2)C3)nc1 [N4-[8-(5-acetylpyridin-2-yl)-8-azabicyclo[3.2.1]oct-3-endo-yl]-2-(cyclopropylamino)benzene-1,4-dicarboxamide] | < 500
7 | CC(=O)c1ccc(N2[C@@H]3CC[C@H]2C[C@@H](NC(=O)c2ccc(C(N)=O)c(NC4CCCCC4)c2)C3)nc1 [N4-[8-(5-acetylpyridin-2-yl)-8-azabicyclo[3.2.1]oct-3-endo-yl]-2-(cyctohexylamino)benzene-1,4-dicarboxamide] | < 500
8 | CCNc1cc(C(=O)N[C@H]2C[C@H]3CC[C@@H](C2)N3c2ccc(C(C)=O)cn2)ccc1C(N)=O [N4-[8-(5-acetylpyridin-2-yl)-8-azabicyclo[3.2.1]oct-3-endo-yl]-2-(ethylamino)benzene-1,4-dicarboxamide] | < 500
9 | CC(=O)c1ccc(N2[C@@H]3CC[C@H]2C[C@@H](NC(=O)c2ccc(C(N)=O)c(Nc4ccccc4)c2)C3)nc1 [N4-[8-(5-acetylpyridin-2-yl)-8-azabicyclo[3.2.1]oct-3-endo-yl]-2-(phenylamino)benzene-1,4-dicarboxamide] | < 500
10 | CC(=O)c1ccc(N2[C@@H]3CC[C@H]2C[C@@H](NC(=O)c2ccc(C(N)=O)c(NN4CCCCC4)c2)C3)nc1 [N4-[8-(5-acetylpyridin-2-yl)-8-azabicyclo[3.2.1]oct-3-endo-yl]-2-(piperidin-1-ylamino)benzene-1,4-dicarboxamide] | < 500
11 | CC(=O)c1ccc(N2[C@@H]3CC[C@H]2C[C@@H](NC(=O)c2ccc(C(N)=O)c(NC4CCNCC4)c2)C3)nc1 [N4-[8-(5-acetylpyridin-2-yl)-8-azabicyclo[3.2.1]oct-3-endo-yl]-2-(piperidin-4-ylamino)benzene-1,4-dicarboxamide] | < 500
12 | CCCNc1cc(C(=O)N[C@H]2C[C@H]3CC[C@@H](C2)N3c2ccc(C(C)=O)cn2)ccc1C(N)=O [N4-[8-(5-acetylpyridin-2-yl)-8-azabicyclo[3.2.1]oct-3-endo-yl]-2-(propylamino)benzene-1,4-dicarboxamide] | < 500
13 | CC(=O)c1ccc(N2[C@@H]3CC[C@H]2C[C@@H](NC(=O)c2ccc(C(N)=O)c(NC4CCOCC4)c2)C3)nc1 [N4-[8-(5-acetylpyridin-2-yl)-8-azabicyclo[3.2.1]oct-3-endo-yl]-2-(tetrahydro-2H-pyran-4-ylamino)benzene-1,4-dicarboxamide] | < 500
14 | CC(=O)c1ccc(N2[C@@H]3CC[C@H]2C[C@@H](NC(=O)c2ccc(C(N)=O)c(NC4CCOC4)c2)C3)nc1 (stereo partly drawn) [N4-[8-(5-acetylpyridin-2-yl)-8-azabicyclo[3.2.1]oct-3-endo-yl]-2-(tetrahydrofuran-3-ylamino)benzene-1,4-dicarboxamide] | < 500
15 | CC(=O)c1ccc(N2[C@@H]3CC[C@H]2C[C@@H](NC(=O)c2ccc(C(N)=O)c(NCCOC(C)C)c2)C3)nc1 [N4-[8-(5-acetylpyridin-2-yl)-8-azabicyclo[3.2.1]oct-3-endo-yl]-2-({2-[(1-methylethyl)oxy]ethyl}amino)benzene-1,4-dicarboxamide] | < 500
16 | CC(=O)c1ccc(N2[C@@H]3CC[C@H]2C[C@@H](NC(=O)c2ccc(C(N)=O)c(NCCCNC(C)C)c2)C3)nc1 [N4-[8-(5-acetylpyridin-2-yl)-8-azabicyclo[3.2.1]oct-3-endo-yl]-2-({3-[(1-methylethyl)amino]propyl}amino) benzene-1,4-dicarboxamide] | 500 to 999

Row | SMILES | IC50 [nM]
17 | COc1ccc(Nc2cc(C(=O)N[C@H]3C[C@H]4CC[C@@H](C3)N4c3ccc(C(C)=O)cn3)ccc2C(N)=O)cc1OCCN1CCOCC1 [N4-[8-(5-acetylpyridin-2-yl)-8-azabicyclo[3.2.1]oct-3-endo-yl]-2-({4-(methyloxy)-3-[(2-morpholin-4-ylethyl)oxy]phenyl}amino)benzene-1,4-dicarboxamide] | < 500
18 | CC(=O)c1ccc(N2[C@@H]3CC[C@H]2C[C@@H](NC(=O)c2ccc(C(N)=O)c(NC(C)C(C)(C)C)c2)C3)nc1 (stereo partly drawn) [N4-[8-(5-acetylpyridin-2-yl)-8-azabicyclo[3.2.1]oct-3-endo-yl]-2-[(1,2,2-trimethylpropyl)amino]benzene-1,4-dicarboxamide] | < 500
19 | CC(=O)c1ccc(N2[C@@H]3CC[C@H]2C[C@@H](NC(=O)c2ccc(C(N)=O)c(NC(C)C(C)C)c2)C3)nc1 (stereo partly drawn) [N4-[8-(5-acetylpyridin-2-yl)-8-azabicyclo[3.2.1]oct-3-endo-yl]-2-[(1,2-dimethylpropyl)amino]benzene-1,4-dicarboxamide] | < 500
20 | CCN1CCC(Nc2cc(C(=O)N[C@H]3C[C@H]4CC[C@@H](C3)N4c3ccc(C(C)=O)cn3)ccc2C(N)=O)CC1 [N4-[8-(5-acetylpyridin-2-yl)-8-azabicyclo[3.2.1]oct-3-endo-yl]-2-[(1-ethylpiperidin-4-yl)amino]benzene-1,4-dicarboxamide] | 500 to 999
21 | CCC(CC)Nc1cc(C(=O)N[C@H]2C[C@H]3CC[C@@H](C2)N3c2ccc(C(C)=O)cn2)ccc1C(N)=O [N4-[8-(5-acetylpyridin-2-yl)-8-azabicyclo[3.2.1]oct-3-endo-yl]-2-[(1-ethylpropyl)amino]benzene-1,4-dicarboxamide] | < 500
22 | CC(=O)c1ccc(N2[C@@H]3CC[C@H]2C[C@@H](NC(=O)c2ccc(C(N)=O)c(NC(C)C)c2)C3)nc1 [N4-[8-(5-acetylpyridin-2-yl)-8-azabicyclo[3.2.1]oct-3-endo-yl]-2-[(1-methylethyl)amino]benzene-1,4-dicarboxamide] | < 500
23 | CCCC(CCC)Nc1cc(C(=O)N[C@H]2C[C@H]3CC[C@@H](C2)N3c2ccc(C(C)=O)cn2)ccc1C(N)=O [N4-[8-(5-acetylpyridin-2-yl)-8-azabicyclo[3.2.1]oct-3-endo-yl]-2-[(1-propylbutyl)amino]benzene-1,4-dicarboxamide] | < 500
24 | CC(=O)c1ccc(N2[C@@H]3CC[C@H]2C[C@@H](NC(=O)c2ccc(C(N)=O)c(NCC(F)(F)F)c2)C3)nc1 [N4-[8-(5-acetylpyridin-2-yl)-8-azabicyclo[3.2.1]oct-3-endo-yl]-2-[(2,2,2-trifluoroethyl)amino]benzene-1,4-dicarboxamide] | < 500
25 | CC(=O)c1ccc(N2[C@@H]3CC[C@H]2C[C@@H](NC(=O)c2ccc(C(N)=O)c(NCC(F)(F)C(F)(F)F)c2)C3)nc1 [N4-[8-(5-acetylpyridin-2-yl)-8-azabicyclo[3.2.1]oct-3-endo-yl]-2-[(2,2,3,3,3-pentafluoropropyl)amino]benzene-1,4-dicarboxamide] | < 500
26 | CC(=O)c1ccc(N2[C@@H]3CC[C@H]2C[C@@H](NC(=O)c2ccc(C(N)=O)c(NCC(F)(F)C(F)(F)C(F)(F)F)c2)C3)nc1 [N4-[8-(5-acetylpyridin-2-yl)-8-azabicyclo[3.2.1]oct-3-endo-yl]-2-[(2,2,3,3,4,4,4-heptafluorobutyl)amino]benzene-1,4-dicarboxamide] | 500 to 999
27 | CC(=O)c1ccc(N2C3CCC2CC(NC(=O)c2ccc(C(N)=O)c(NCCN)c2)C3)nc1 (stereo not drawn) [N4-[8-(5-acetylpyridin-2-yl)-8-azabicyclo[3.2.1]oct-3-endo-yl]-2-[(2-aminoethyl)amino]benzene-1,4-dicarboxamide] | < 500
28 | CC(=O)c1ccc(N2[C@@H]3CC[C@H]2C[C@@H](NC(=O)c2ccc(C(N)=O)c(NCC(C)C)c2)C3)nc1 [N4-[8-(5-acetylpyridin-2-yl)-8-azabicyclo[3.2.1]oct-3-endo-yl]-2-[(2-methylpropyl)amino]benzefle-1,4-dicarboxamide] | < 500
29 | CC(=O)c1ccc(N2[C@@H]3CC[C@H]2C[C@@H](NC(=O)c2ccc(C(N)=O)c(NCCC(F)(F)F)c2)C3)nc1 [N4-[8-(5-acetylpyridin-2-yl)-8-azabicyclo[3.2.1]oct-3-endo-yl]-2-[(3,3,3-trifluoropropyl)amino]benzene-1,4-dicarboxamide] | < 500
30 | CC(=O)c1ccc(N2[C@@H]3CC[C@H]2C[C@@H](NC(=O)c2ccc(C(N)=O)c(Nc4cccc(OCCN(C)C)c4)c2)C3)nc1 [N4-[8-(5-acetylpyridin-2-yl)-8-azabicyclo[3.2.1]oct-3-endo-yl]-2-[(3-{[2-(dimethylamino)ethyl]oxy}phenyl)amino] benzene-1,4-dicarboxamide] | < 500
31 | CC(=O)c1ccc(N2C3CCC2CC(NC(=O)c2ccc(C(N)=O)c(N[C@@H]4CCOC4)c2)C3)nc1 (stereo partly drawn) [N4-[8-(5-acetylpyridin-2-yl)-8-azabicyclo[3.2.1]oct-3-endo-yl]-2-[(3R)-tetrahydrofuran-3-ylamino]benzene-1,4-dioarboxamide] | < 500
